Test system: infantile rabbit uteri
Assay: McPhail test, progestagenic and antiprogestagenic activities in infantile rabbit uteri
Format: in vivo
Excerpt: The HE of 97.3% is significant (Table 5).
Progestagenic and antiprogestagenic activities of STS 593
in infantile rabbit uteri as shown by the McPhail test

[1] = 10 mg/kg p.o. + progesterone 4 mg/animal s.c., over 4 days, n=5

**Q.** Which results are given for `COc1ccc2c(c1)CC[C@@H]1[C@@H]2CC[C@]2(C)[C@@H](O)C[C@H]3C[C@@]312` [STS 593, 3-methoxy-14β,15β-methylene-estra-1,3,5(10)-triene-17β-ol]?
**A.** McPhail index (-x) (2 mg/kg p.o. + progesterone 4 mg/animal s.c., over 4 days, n=6): 3.8; McPhail index (-x) (2 mg/kg p.o. alone, total dose over 4 days, n=5): 0; HE % [1]: 26.7%; McPhail index (-x) [1]: 2.2; McPhail index (-x) (50 mg/kg p.o. + progesterone 4 mg/animal s.c., over 4 days, n=6): 0.08; HE % (50 mg/kg p.o. + progesterone 4 mg/animal s.c., over 4 days, significant): 97.3%; Antiprogestagenic effects (in words) (rabbit, in vivo): produces antiestrogenic and antiprogestagenic effects; Progestagenic activity (rabbit, in vivo): lacking in progestagenic activity; Antiprogestagenic properties (rabbits, oral, 50 mg/kg): showed antiprogestanenic properties

Reference: patent US4231946A, “14,15-Methylene derivatives of the estrane series and methods for preparing same” (VEB Jenapharm, priority 1978, dated 1980)
